Laboratory results published in patent US8642774B2, “Compounds” (Boehringer Ingelheim International GmbH, priority 2011, dated 2014).

molecular target: T1, human recombinant mGluR5 (Homo sapiens, UniProt P41594); assay: positive modulation of mGluR5, calcium based FLIPR assay; type: cell-based; conditions: not given
T1 construct: expressed in transfected cells; host or cells: HEK 293 cell line, cultured with tetracycline, hygromycin and geneticin; tetracycline is withdrawn 3-7 days before the assay
T1 sequence (P41594 21-1212): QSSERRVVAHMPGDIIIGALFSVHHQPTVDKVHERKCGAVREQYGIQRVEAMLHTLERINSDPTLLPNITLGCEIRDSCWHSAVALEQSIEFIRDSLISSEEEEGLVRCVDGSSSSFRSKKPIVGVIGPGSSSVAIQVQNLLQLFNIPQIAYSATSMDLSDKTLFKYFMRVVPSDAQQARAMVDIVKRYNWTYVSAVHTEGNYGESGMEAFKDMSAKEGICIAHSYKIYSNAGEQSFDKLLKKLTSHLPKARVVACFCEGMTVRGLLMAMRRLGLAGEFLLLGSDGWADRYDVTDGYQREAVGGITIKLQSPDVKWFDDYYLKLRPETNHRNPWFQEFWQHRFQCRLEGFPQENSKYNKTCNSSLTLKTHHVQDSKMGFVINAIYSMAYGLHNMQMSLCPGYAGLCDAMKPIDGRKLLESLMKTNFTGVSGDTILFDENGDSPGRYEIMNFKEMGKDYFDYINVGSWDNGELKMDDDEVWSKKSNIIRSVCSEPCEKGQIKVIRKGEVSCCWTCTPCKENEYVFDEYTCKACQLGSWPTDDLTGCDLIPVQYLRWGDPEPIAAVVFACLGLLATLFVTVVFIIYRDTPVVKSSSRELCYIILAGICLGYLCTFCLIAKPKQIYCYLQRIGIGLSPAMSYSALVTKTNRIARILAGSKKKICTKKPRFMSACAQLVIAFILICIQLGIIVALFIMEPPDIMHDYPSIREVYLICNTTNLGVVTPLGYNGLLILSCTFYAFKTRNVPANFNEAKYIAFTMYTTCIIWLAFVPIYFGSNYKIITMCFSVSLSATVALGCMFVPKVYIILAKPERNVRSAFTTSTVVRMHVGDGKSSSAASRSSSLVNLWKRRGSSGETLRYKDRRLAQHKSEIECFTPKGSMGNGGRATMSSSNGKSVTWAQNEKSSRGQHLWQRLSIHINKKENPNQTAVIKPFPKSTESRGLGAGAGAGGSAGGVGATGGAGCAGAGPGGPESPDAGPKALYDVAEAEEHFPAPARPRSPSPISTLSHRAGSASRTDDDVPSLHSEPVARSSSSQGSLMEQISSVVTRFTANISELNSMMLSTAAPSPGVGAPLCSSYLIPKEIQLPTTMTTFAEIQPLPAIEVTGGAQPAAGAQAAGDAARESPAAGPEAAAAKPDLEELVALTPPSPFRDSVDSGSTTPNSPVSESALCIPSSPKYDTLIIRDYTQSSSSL
Protocol: The positive modulation of mGluR5 is measured in a HEK 293 cell line expressing human recombinant mGluR5 and is detected with calcium based FLIPR assay. The cells are cultured with DMEM supplemented with 10% FCS, 2 μg/mL tetracycline, 100 μg/mL hygromycin and 500 μg/mL gneticin. The cell culture media is exchanged for tetracycline-free cell culture media 3-7 days before the assay. One day before the assay the cell culture medium is exchanged to DMEM without glutamine and phenol red and supplemented with 10% FCS, 100 μg/mL hygromycin and 500 μg/mL geneticin. On the assay day, the medium of the subconfluent cultures is removed and the cells are detached by addition of 2.5 ml EDTA (0.02%) per 175 cm2 culture flask for 1 minute. The cells are resuspend in Ringer solution (140 mM NaCl, 5 mM KCl, 2.5 mM CaCl2, 1.5 mM MgCl2, 5 mM Glucose, 10 mM Hepes; adjusted to pH 7.4 with NaOH), pooled and Ringer solution added to adjust the volume to 50 mL. The cell suspension is centrifuged for 5 min at 1500 U/min (425 g). The supernatant is removed and the cells washed a second time with 50 ml fresh Ringer solution and centrifuged again as before. The supernatant is again removed and the pellet resuspended in Ringer solution to 1,000,000 cells/ml (1×10^6 cells/mL). The cells are plated onto BD BioCoat Poly-D-Lysine 384 well plates (20.000 cells/well; 20 μl/well). The lid covered plates are then incubated until use at 37° C./10% CO2. For dye loading, 20 μl of Calcium-4 assay kit solution (prepared according to the manufacturer's description in Ringer solution) are added to the cells and the plates are incubated for 80 min 37° C. and then 10 min at room temperature. • Controls, Compound dilution and assay execution: • Each assay plate contained wells with “high” and “low” controls:
Low controls 1% DMSO/ringer solution+basal glutamate activation (defined as 100% CTL).
High controls 10 μM CDPPB+basal glutamate activation (defined as 200% CTL).
Test compounds are dissolved and diluted in DMSO to 100-fold the desired concentrations. In a second step, the compounds are diluted in Ringer solution such that the compounds are 4-fold more concentrated than the desired final assay concentration. The final DMSO concentration was 1%.
20 μl of each compound solution are then transferred to the assay plate and the Ca2+ kinetic is measured to determine any intrinsic compound activity. After 5 min incubation in the FLIPR device, the second stimulation with 20 μl of glutamate in Ringer solution (glutamate concentration adjusted to approximately 5% basal stimulation of the maximal possible glutamate effect) is added and the kinetic Ca2+ response of the wells was measured for the modulation effect.
The peak height of the Ca release related fluorescence signal (9-66) is used for the EC50. The EC50 of the modulation is calculated over a nonlinear regression with GraphPad Prism (Table 1).

Compound `O=C(Cn1nc(-c2ccc(F)cc2)nc1-c1ccc(F)cc1)N1CCC(Nc2ccccc2)CC1` [Example 7.02.20.] has an EC50 of 1530 nM.

same assay, conditions: EC50 of the modulation; HEK 293 cell line expressing human recombinant mGluR5; peak height of Ca fluorescence signal after glutamate at approx. 5% basal stimulation; read-out: EC50

In order of falling EC50:
1. O=C(Cn1nc(-c2ccc(F)cc2)nc1-c1ccc(F)cc1)N1CCC(c2ncc(-c3ccccc3)s2)CC1 [Example 7.02.19.]  1990 nM
2. CN1C(=O)N(C2CCN(C(=O)Cn3nc(-c4ccc(F)cc4)nc3-c3ccc(F)cc3)CC2)Cc2ccccc21 [Example 7.02.25.]  1860 nM
3. O=C(Cn1nc(-c2ccc(F)cc2)nc1-c1ccc(F)cc1)N1CCc2c(F)ccc(F)c2C1 [Example 7.02.27.]  1830 nM
4. O=C(Cn1nc(-c2ccc(F)cc2)nc1-c1ccc(F)cc1)N1CCC(n2nc(-c3cccs3)ccc2=O)CC1 [Example 7.02.31.]  1780 nM
5. O=C(Cn1nc(-c2ccc(F)cc2)nc1-c1ccc(F)cc1)N1Cc2ccncc2C1 [Example 7.02.40.]  1760 nM
6. O=C(Cn1nc(-c2ccc(F)cc2)nc1-c1ccc(F)cc1)N1CCc2ncsc2C1 [Example 7.02.43.]  1640 nM
7. Cn1c(=O)n(C2(C)CCN(C(=O)Cn3nc(-c4ccc(F)cc4)nc3-c3ccc(F)cc3)CC2)c2ccccc21 [Example 7.02.34.]  1460 nM
8. O=C(Cn1nc(-c2ccc(F)cc2)nc1-c1ccc(F)cc1)N1CCC(N2Cc3c(Cl)cccc3NC2=O)CC1 [Example 7.02.35.]  1420 nM
9. O=C(Cn1nc(-c2ccc(F)cc2)nc1-c1ccc(F)cc1)N1CCC(OCC2CC2)CC1 [Example 7.02.06.]  1400 nM
10. CC(C)NC(=O)Nc1nc2c(s1)CN(C(=O)Cn1nc(-c3ccc(F)cc3)nc1-c1ccc(F)cc1)CC2 [Example 7.02.16.]  1360 nM
11. Cn1ncc2c1CN(C(=O)Cn1nc(-c3ccc(F)cc3)nc1-c1ccc(F)cc1)C2 [Example 7.02.49.]  1360 nM
12. COc1ccc2c(c1)CN(C(=O)Cn1nc(-c3ccc(F)cc3)nc1-c1ccc(F)cc1)CC2 [Example 7.02.41.]  1270 nM
13. Nc1nc2c(s1)CN(C(=O)Cn1nc(-c3ccc(F)cc3)nc1-c1ccc(F)cc1)CC2 [Example 7.02.42.]  1240 nM
14. CC(C)c1noc(C2CCN(C(=O)Cn3nc(-c4ccc(F)cc4)nc3-c3ccc(F)cc3)CC2)n1 [Example 7.02.03.]  1220 nM
15. CC(=O)Nc1nc2c(s1)CCN(C(=O)Cn1nc(-c3ccc(F)cc3)nc1-c1ccc(F)cc1)CC2 [Example 7.02.07.]  1200 nM
16. Cc1noc(C2CCN(C(=O)Cn3nc(-c4ccc(F)cc4)nc3-c3ccc(F)cc3)CC2)n1 [Example 7.02.38.]  1150 nM
17. O=C(Cn1nc(-c2ccc(F)cc2)nc1-c1ccc(F)cc1)N1CCN(c2ncnc3ccccc23)CC1 [07.03.141^]  1120 nM
18. COc1ccc2c(c1)CCN(C(=O)Cn1nc(-c3ccc(F)cc3)nc1-c1ccc(F)cc1)C2C (stereo not drawn) [Example 7.02.36.]  1090 nM
19. CNC(=O)Nc1nc2c(s1)CN(C(=O)Cn1nc(-c3ccc(F)cc3)nc1-c1ccc(F)cc1)CC2 [Example 7.02.17.]  1060 nM
20. O=C(Cn1nc(-c2ccc(F)cc2)nc1-c1ccc(F)cc1)N1CCc2ccccc2CC1 [Example 7.02.12.]  1020 nM
21. Nc1nnc(C2CCN(C(=O)Cn3nc(-c4ccc(F)cc4)nc3-c3ccc(F)cc3)CC2)o1 [Example 7.02.45.]  1000 nM
22. O=C(Cn1nc(-c2ccc(F)cc2)nc1-c1ccc(F)cc1)N1CCc2cc(C(F)(F)F)ccc2C1 [Example 7.02.09.]  992 nM
23. N#Cc1ccc2c(c1)CCN(C(=O)Cn1nc(-c3ccc(F)cc3)nc1-c1ccc(F)cc1)C2 [Example 7.02.48.]  972 nM
24. O=C(Cn1nc(-c2ccc(F)cc2)nc1-c1ccc(F)cc1)N1CCc2cccc(F)c2C1 [Example 7.02.10.]  965 nM
25. O=C(Cn1nc(-c2ccc(F)cc2)nc1-c1ccc(F)cc1)N1CCC(Oc2ccc3c(c2)OCO3)CC1 [Example 7.02.30.]  932 nM
26. O=C(Cn1nc(-c2ccc(F)cc2)nc1-c1ccc(F)cc1)N1CCc2cc(F)ccc2C1 [Example 7.02.05.]  900 nM
27. O=C(Cn1nc(-c2ccc(F)cc2)nc1-c1ccc(F)cc1)N1Cc2cn[nH]c2C1 [Example 7.02.04.]  818 nM
28. O=C(Cn1nc(-c2ccc(F)cc2)nc1-c1ccc(F)cc1)N1CCC(c2nnc(-c3ccc(F)cc3)o2)CC1 [Example 7.02.22.]  746 nM
29. O=C(Cn1nc(-c2ccc(F)cc2)nc1-c1ccc(F)cc1)N1CCc2ncnc(-c3ccccc3)c2CC1 [Example 7.02.37.]  708 nM
30. O=C(Cn1nc(-c2ccc(F)cc2)nc1-c1ccc(F)cc1)N1CCc2cn[nH]c2CC1 [Example 7.02.51.]  707 nM
31. COc1cccc2c1CCN(C(=O)Cn1nc(-c3ccc(F)cc3)nc1-c1ccc(F)cc1)C2 [Example 7.02.08.]  666 nM
32. CCNC(=O)Nc1nc2c(s1)CN(C(=O)Cn1nc(-c3ccc(F)cc3)nc1-c1ccc(F)cc1)CC2 [Example 7.02.15.]  646 nM
33. O=C(Cn1nc(-c2ccc(F)cc2)nc1-c1ccc(F)cc1)N1CCC(c2noc3ccc(F)cc23)CC1 [Example 7.02.28.]  644 nM
34. N#Cc1ccc(Cl)cc1NC1CCN(C(=O)Cn2nc(-c3ccc(F)cc3)nc2-c2ccc(F)cc2)CC1 [Example 7.02.24.]  560 nM
35. O=C(Cn1nc(-c2ccc(F)cc2)nc1-c1ccc(F)cc1)N1CCN(c2cccc(F)c2)C(=O)C1 [Example 7.02.13.]  544 nM
36. O=C(Cn1nc(-c2ccc(F)cc2)nc1-c1ccc(F)cc1)N1CCN(c2ccccc2F)C(=O)C1 [Example 7.02.14.]  537 nM
37. Nc1ccc2c(c1)CCN(C(=O)Cn1nc(-c3ccc(F)cc3)nc1-c1ccc(F)cc1)CC2 [Example 7.02.26.]  518 nM
38. O=C(Cn1nc(-c2ccc(F)cc2)nc1-c1ccc(F)cc1)N1CCC(c2nccs2)CC1 [Example 7.02.18.]  516 nM
39. C=CCNC(=O)Nc1nc2c(s1)CN(C(=O)Cn1nc(-c3ccc(F)cc3)nc1-c1ccc(F)cc1)CC2 [Example 7.02.29.]  504 nM
40. O=C(Cn1nc(-c2ccc(F)cc2)nc1-c1ccc(F)cc1)N1CCC(c2ccon2)CC1 [Example 7.02.52.]  472 nM
41. CC(C)c1ncc2c(n1)CCN(C(=O)Cn1nc(-c3ccc(F)cc3)nc1-c1ccc(F)cc1)C2 [Example 7.02.32.]  468 nM
42. COc1cccc2c1CN(C(=O)Cn1nc(-c3ccc(F)cc3)nc1-c1ccc(F)cc1)C2 [Example 7.02.46.]  381 nM
43. COC(=O)c1ccc2c(c1)CCN(C(=O)Cn1nc(-c3ccc(F)cc3)nc1-c1ccc(F)cc1)CC2 [Example 7.02.11.]  376 nM
44. COC(=O)c1ccc2c(c1)CCN(C(=O)Cn1nc(-c3ccc(F)cc3)nc1-c1ccc(F)cc1)C2 [Example 7.02.33.]  309 nM
45. COc1cccc(N2CCN(C(=O)Cn3nc(-c4ccc(F)cc4)nc3-c3ccc(F)cc3)CC2=O)c1 [Example 7.01.03.]  283 nM
46. COc1ccc2c(c1)CCN(C(=O)Cn1nc(-c3ccc(F)cc3)nc1-c1ccc(F)cc1)CC2 [Example 7.02.39.]  279 nM
47. Cc1nc2c(s1)CN(C(=O)Cn1nc(-c3ccc(F)cc3)nc1-c1ccc(F)cc1)C2 [Example 7.02.23.]  278 nM
48. O=C(Cn1nc(-c2ccc(F)cc2)nc1-c1ccc(F)cc1)N1CCC(c2ncc(Cl)cn2)CC1 [Example 7.02.50.]  216 nM
49. O=C(Cn1nc(-c2ccc(F)cc2)nc1-c1ccc(F)cc1)N1CCN(c2ccccn2)C(=O)C1 [Example 7.01.01., 4-(2-(3,5-bis-(4-Fluoro-phenyl)-(1,2,4)triazol-1-yl)-acetyl)-1-pyridin-2-yl-piperazin-2-one]  212 nM
50. COc1ccc2c(c1)CCN(C(=O)Cn1nc(-c3ccc(F)cc3)nc1-c1ccc(F)cc1)C2 [Example 7.02.44.]  211 nM
51. COc1ccc2c(c1)CN(C(=O)Cn1nc(-c3ccc(F)cc3)nc1-c1ccc(F)cc1)C2 [Example 7.02.47.]  206 nM
52. O=C(Cn1nc(-c2ccc(F)cc2)nc1-c1ccc(F)cc1)N1CCC(c2noc3ccccc23)CC1 [Example 7.02.01., 1-(4-Benzo[d]isoxazol-3-yl-piperidin-1-yl)-2-(3,5-bis-(4-fluoro-phenyl)-(1,2,4)triazol-1-yl)-ethanone]  178 nM
53. O=C(Cn1nc(-c2ccc(F)cc2)nc1-c1ccc(F)cc1)N1CCN(c2nccs2)C(=O)C1 [Example 7.01.02.]  118 nM
